Experimental data taken from US12281080B2, “Quinoline-based compounds and methods of inhibiting CDK8/19” (University of South Carolina, priority 2018, dated 2025).

How the values were obtained:
Test in all cases: KINOMEscan scanMAX
[1] = target: ABL1(E255K)-phosphorylated (Homo sapiens (Human), UniProt P00519, E255K); format: binding; settings: 2000 nM; read-out: Percent Control
EGFR(G719S) = EGFR(G719S) (Homo sapiens (Human), UniProt P00533, G719S); format: binding; settings: 2000 nM; read-out: Percent Control
GRK3 (ADRBK2) = GRK3 (ADRBK2) (Homo sapiens (Human), UniProt P35626); format: binding; settings: 2000 nM; read-out: Percent Control
LYN = LYN (Homo sapiens (Human), UniProt P07948); format: binding; settings: 2000 nM; read-out: Percent Control
TNK2 = TNK2 (Homo sapiens (Human), UniProt Q07912); format: binding; settings: 2000 nM; read-out: Percent Control
TRKA (NTRK1) = TRKA (NTRK1) (Homo sapiens (Human), UniProt P04629); format: binding; settings: 2000 nM; read-out: Percent Control
NEK1 = NEK1 (Homo sapiens (Human), UniProt Q96PY6); format: binding; settings: 2000 nM; read-out: Percent Control
PAK1 = PAK1 (Homo sapiens (Human), UniProt Q13153); format: binding; settings: 2000 nM; read-out: Percent Control
JNK3 (MAPK10) = JNK3 (MAPK10) (Homo sapiens (Human), UniProt P53779); format: binding; settings: 2000 nM; read-out: Percent Control
CAMK2A = CAMK2A (Homo sapiens (Human), UniProt Q9UQM7); format: binding; settings: 2000 nM; read-out: Percent Control
CDK9 = CDK9 (Homo sapiens (Human), UniProt P50750); format: binding; settings: 2000 nM; read-out: Percent Control
[2] = target: JAK3(JH1domain-catalytic) (Homo sapiens (Human), UniProt P52333); format: binding; settings: 2000 nM; read-out: Percent Control
PKN1 = PKN1 (Homo sapiens (Human), UniProt Q16512); format: binding; settings: 2000 nM; read-out: Percent Control
[3] = target: ABL1(H396P)-phosphorylated (Homo sapiens (Human), UniProt P00519, H396P); format: binding; settings: 2000 nM; read-out: Percent Control
[4] = target: RSK1(Kin.Dom.1-N-terminal) (RPS6KA1) (Homo sapiens (Human), UniProt Q15418); format: binding; settings: 2000 nM; read-out: Percent Control
ACVRL1 = ACVRL1 (Homo sapiens (Human), UniProt P37023); format: binding; settings: 2000 nM; read-out: Percent Control
KIT(D816H) = KIT(D816H) (Homo sapiens (Human), UniProt P10721, D816H); format: binding; settings: 2000 nM; read-out: Percent Control
CSNK1A1L = CSNK1A1L (Homo sapiens (Human), UniProt Q8N752); format: binding; settings: 2000 nM; read-out: Percent Control
INSR = INSR (Homo sapiens (Human), UniProt P06213); format: binding; settings: 2000 nM; read-out: Percent Control
[5] = target: PFPK5(P.falciparum) (MAL13P1.279) (Plasmodium falciparum (isolate 3D7), UniProt P61075); format: binding; settings: 2000 nM; read-out: Percent Control
PIP5K1C = PIP5K1C (Homo sapiens (Human), UniProt O60331); format: binding; settings: 2000 nM; read-out: Percent Control
CAMKK1 = CAMKK1 (Homo sapiens (Human), UniProt Q8N5S9); format: binding; settings: 2000 nM; read-out: Percent Control
ERK8 (MAPK15) = ERK8 (MAPK15) (Homo sapiens (Human), UniProt Q8TD08); format: binding; settings: 2000 nM; read-out: Percent Control
EGFR(L858R, T790M) = EGFR(L858R, T790M) (Homo sapiens (Human), UniProt P00533, L858R/T790M); format: binding; settings: 2000 nM; read-out: Percent Control
STK16 = STK16 (Homo sapiens (Human), UniProt O75716); format: binding; settings: 2000 nM; read-out: Percent Control
ABL2 = ABL2 (Homo sapiens (Human), UniProt P42684); format: binding; settings: 2000 nM; read-out: Percent Control
MEK2 (MAP2K2) = MEK2 (MAP2K2) (Homo sapiens (Human), UniProt P36507); format: binding; settings: 2000 nM; read-out: Percent Control
MEK5 (MAP2K5) = MEK5 (MAP2K5) (Homo sapiens (Human), UniProt Q13163); format: binding; settings: 2000 nM; read-out: Percent Control
[6] = target: ABL1(F317L)-phosphorylated (Homo sapiens (Human), UniProt P00519, F317L); format: binding; settings: 2000 nM; read-out: Percent Control
RET(M918T) = RET(M918T) (Homo sapiens (Human), UniProt P07949, M918T); format: binding; settings: 2000 nM; read-out: Percent Control
MINK (MINK1) = MINK (MINK1) (Homo sapiens (Human), UniProt Q8N4C8); format: binding; settings: 2000 nM; read-out: Percent Control
PIK3CA(H1047L) = PIK3CA(H1047L) (Homo sapiens (Human), UniProt P42336, H1047L); format: binding; settings: 2000 nM; read-out: Percent Control
CDK11 (CDK19) = CDK11 (CDK19) (Homo sapiens (Human), UniProt Q9BWU1); format: binding; settings: 2000 nM; read-out: Percent Control
CDK5 = CDK5 (Homo sapiens (Human), UniProt Q00535); format: binding; settings: 2000 nM; read-out: Percent Control
EPHA8 = EPHA8 (Homo sapiens (Human), UniProt P29322); format: binding; settings: 2000 nM; read-out: Percent Control
FLT3(ITD) = format: binding, human; settings: 2000 nM
DAPK1 = DAPK1 (Homo sapiens (Human), UniProt P53355); format: binding; settings: 2000 nM; read-out: Percent Control
MARK2 = MARK2 (Homo sapiens (Human), UniProt Q7KZI7); format: binding; settings: 2000 nM; read-out: Percent Control
OSR1 (OXSR1) = OSR1 (OXSR1) (Homo sapiens (Human), UniProt O95747); format: binding; settings: 2000 nM; read-out: Percent Control

Sequence of TNK2 (Q07912 whole entry): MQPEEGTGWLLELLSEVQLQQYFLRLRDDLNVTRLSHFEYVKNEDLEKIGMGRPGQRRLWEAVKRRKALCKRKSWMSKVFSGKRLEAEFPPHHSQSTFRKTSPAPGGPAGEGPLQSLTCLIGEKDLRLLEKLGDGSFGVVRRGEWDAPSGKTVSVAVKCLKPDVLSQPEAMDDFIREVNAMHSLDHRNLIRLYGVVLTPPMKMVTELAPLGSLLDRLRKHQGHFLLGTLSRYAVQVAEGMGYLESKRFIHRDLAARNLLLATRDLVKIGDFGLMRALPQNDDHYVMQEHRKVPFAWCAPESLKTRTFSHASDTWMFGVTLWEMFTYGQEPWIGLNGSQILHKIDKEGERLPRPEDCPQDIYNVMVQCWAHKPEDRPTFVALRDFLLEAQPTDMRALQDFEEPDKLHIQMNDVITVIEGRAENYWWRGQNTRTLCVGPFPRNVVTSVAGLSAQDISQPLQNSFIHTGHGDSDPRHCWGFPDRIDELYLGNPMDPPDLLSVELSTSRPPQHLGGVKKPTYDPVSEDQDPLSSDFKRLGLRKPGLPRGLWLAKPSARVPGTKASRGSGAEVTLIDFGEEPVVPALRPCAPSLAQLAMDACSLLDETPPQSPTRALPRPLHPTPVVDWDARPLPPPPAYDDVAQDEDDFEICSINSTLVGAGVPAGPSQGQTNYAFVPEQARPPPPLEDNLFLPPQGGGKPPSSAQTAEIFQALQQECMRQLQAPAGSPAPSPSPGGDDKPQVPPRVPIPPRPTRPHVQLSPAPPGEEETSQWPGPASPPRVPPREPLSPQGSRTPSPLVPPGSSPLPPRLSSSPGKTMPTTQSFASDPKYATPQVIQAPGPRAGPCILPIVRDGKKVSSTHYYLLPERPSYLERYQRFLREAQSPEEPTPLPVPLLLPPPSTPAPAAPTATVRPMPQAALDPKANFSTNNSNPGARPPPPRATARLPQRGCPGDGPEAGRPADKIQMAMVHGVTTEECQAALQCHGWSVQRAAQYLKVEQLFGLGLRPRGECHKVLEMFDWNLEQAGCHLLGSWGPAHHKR
Sequence of JNK3 (MAPK10) (P53779 whole entry): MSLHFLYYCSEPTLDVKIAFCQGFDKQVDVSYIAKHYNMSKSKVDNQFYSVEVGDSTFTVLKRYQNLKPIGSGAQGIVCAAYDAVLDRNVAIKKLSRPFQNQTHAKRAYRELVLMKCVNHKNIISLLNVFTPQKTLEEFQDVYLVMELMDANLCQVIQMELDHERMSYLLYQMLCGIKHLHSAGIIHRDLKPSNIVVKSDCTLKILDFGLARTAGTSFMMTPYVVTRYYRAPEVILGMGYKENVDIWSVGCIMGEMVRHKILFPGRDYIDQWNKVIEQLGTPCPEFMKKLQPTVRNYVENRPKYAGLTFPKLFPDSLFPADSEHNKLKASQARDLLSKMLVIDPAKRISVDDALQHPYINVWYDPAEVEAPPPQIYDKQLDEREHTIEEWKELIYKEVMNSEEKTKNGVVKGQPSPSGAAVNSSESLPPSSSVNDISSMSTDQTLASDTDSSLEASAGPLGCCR
Sequence of JAK3(JH1domain-catalytic) (P52333 822-1111): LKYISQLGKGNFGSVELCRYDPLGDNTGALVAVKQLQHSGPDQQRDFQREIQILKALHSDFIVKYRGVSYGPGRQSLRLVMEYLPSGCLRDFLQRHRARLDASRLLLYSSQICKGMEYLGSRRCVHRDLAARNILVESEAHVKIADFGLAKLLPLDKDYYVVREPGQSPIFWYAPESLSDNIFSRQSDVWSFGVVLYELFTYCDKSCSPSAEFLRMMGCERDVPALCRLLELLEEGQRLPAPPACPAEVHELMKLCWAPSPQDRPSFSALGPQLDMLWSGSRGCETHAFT
Sequence of PIK3CA(H1047L) (P42336 whole entry H1047L): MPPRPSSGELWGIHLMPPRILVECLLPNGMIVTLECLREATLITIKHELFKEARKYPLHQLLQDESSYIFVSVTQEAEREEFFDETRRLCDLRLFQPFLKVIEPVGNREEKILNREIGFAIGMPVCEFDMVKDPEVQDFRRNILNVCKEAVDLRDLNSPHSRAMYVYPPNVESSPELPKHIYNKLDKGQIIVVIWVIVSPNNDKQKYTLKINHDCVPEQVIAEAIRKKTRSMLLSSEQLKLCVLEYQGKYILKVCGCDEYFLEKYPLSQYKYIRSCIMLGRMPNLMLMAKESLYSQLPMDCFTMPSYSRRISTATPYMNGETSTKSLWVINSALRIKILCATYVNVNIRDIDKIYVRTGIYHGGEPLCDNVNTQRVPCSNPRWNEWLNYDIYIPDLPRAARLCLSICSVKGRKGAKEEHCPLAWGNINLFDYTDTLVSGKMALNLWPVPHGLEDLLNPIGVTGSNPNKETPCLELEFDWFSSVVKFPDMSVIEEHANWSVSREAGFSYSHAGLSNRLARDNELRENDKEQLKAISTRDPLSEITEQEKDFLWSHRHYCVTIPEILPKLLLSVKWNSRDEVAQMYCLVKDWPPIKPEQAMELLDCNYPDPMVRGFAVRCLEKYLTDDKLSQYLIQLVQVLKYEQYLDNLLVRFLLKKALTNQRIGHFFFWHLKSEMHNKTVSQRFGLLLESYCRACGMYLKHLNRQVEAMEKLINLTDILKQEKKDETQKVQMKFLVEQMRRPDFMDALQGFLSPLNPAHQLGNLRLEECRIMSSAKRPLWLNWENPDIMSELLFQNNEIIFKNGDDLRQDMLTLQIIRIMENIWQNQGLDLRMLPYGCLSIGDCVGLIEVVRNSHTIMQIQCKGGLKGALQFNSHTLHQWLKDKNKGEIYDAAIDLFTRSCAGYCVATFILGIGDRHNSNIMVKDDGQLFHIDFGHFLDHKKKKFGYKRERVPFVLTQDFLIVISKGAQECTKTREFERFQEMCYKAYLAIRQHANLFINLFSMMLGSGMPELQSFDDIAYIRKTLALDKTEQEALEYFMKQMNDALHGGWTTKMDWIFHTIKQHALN
Sequence of ABL2 (P42684 whole entry): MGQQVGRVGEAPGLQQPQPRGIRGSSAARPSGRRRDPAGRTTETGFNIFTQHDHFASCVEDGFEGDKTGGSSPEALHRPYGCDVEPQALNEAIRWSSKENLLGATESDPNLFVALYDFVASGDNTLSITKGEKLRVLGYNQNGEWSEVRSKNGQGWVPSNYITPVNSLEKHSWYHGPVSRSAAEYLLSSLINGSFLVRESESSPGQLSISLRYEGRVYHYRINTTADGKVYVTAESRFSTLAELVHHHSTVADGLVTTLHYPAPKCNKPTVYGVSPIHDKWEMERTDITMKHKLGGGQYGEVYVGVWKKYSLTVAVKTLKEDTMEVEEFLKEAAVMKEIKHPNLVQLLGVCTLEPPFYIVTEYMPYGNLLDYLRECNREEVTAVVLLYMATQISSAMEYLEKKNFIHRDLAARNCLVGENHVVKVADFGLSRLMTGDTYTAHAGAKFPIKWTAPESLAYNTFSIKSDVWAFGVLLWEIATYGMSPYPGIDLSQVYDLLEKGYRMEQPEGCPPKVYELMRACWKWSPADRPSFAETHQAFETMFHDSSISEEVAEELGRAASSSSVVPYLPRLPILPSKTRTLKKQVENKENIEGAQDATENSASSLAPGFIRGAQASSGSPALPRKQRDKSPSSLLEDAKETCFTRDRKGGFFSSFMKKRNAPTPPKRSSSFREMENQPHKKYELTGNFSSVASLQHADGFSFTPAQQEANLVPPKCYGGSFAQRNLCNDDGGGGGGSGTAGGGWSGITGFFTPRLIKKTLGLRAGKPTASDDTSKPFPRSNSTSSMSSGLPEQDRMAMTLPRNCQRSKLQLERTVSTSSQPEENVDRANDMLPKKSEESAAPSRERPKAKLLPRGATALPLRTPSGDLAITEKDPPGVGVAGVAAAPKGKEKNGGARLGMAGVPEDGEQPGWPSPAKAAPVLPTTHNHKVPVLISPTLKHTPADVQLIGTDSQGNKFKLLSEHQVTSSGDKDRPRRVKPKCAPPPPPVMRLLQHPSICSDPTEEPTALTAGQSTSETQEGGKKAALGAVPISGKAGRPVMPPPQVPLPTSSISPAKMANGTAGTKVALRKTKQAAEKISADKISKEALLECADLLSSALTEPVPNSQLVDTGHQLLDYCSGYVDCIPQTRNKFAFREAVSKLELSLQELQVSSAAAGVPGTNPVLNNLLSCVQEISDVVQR
Sequence of TRKA (NTRK1) (P04629 33-796): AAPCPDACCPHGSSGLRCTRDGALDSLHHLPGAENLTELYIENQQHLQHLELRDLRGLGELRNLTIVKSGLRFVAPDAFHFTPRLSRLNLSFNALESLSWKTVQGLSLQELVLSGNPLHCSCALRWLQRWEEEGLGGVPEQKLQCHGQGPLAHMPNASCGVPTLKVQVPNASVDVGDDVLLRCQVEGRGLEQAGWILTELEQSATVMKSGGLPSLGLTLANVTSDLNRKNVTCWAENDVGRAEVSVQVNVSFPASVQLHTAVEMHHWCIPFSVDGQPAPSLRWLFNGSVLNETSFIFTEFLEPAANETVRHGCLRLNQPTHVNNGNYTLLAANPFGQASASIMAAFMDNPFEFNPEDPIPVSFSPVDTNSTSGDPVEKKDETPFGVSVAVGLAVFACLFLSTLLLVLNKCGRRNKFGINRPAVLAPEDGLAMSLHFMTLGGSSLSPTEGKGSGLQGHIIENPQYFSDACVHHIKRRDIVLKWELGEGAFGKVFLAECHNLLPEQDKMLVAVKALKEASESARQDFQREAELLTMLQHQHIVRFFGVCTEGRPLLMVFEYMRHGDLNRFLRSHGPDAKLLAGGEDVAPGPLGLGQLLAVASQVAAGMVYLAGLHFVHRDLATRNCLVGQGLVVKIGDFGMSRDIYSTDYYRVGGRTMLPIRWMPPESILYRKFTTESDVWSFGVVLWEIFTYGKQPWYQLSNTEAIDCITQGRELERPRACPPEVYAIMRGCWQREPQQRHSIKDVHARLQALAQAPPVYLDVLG
Sequence of RSK1(Kin.Dom.1-N-terminal) (RPS6KA1) (Q15418 62-321): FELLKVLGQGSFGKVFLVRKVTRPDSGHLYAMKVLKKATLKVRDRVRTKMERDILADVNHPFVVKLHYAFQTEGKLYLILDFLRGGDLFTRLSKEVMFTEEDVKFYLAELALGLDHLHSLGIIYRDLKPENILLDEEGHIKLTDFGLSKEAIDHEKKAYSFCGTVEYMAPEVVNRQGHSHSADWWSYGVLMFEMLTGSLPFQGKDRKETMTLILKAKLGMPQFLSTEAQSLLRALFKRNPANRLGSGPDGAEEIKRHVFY

For `CN1CCN(C(=O)c2ccc3cc(CCNc4ccnc5ccc(C#N)cc45)ccc3c2)CC1` [compound 6148, 4-((2-(6-(4-methylpiperazine-1-carbonyl)naphthalen-2-yl)ethyl)amino)quinoline-6-carbonitrile], the remaining binding at 2 µM [1] was 93%, the remaining binding at 2 µM (EGFR(G719S)) was 100% and the remaining binding at 2 µM (GRK3 (ADRBK2)) was 73%. It also gave a remaining binding at 2 µM (LYN) of 88%, a remaining binding at 2 µM (TNK2) of 94% and a remaining binding at 2 µM (TRKA (NTRK1)) of 53%. For the same compound, the remaining binding at 2 µM (NEK1) was 84%, the remaining binding at 2 µM (PAK1) was 92% and the remaining binding at 2 µM (JNK3 (MAPK10)) was 61%. It also gave a remaining binding at 2 µM (CAMK2A) of 100%, a remaining binding at 2 µM (CDK9) of 97% and a remaining binding at 2 µM [2] of 65%. For the same compound, the remaining binding at 2 µM (PKN1) was 100%, the remaining binding at 2 µM [3] was 81% and the remaining binding at 2 µM [4] was 91%. It also gave a remaining binding at 2 µM (ACVRL1) of 93%, a remaining binding at 2 µM (KIT(D816H)) of 57% and a remaining binding at 2 µM (CSNK1A1L) of 88%. It also gave a remaining binding at 2 µM (INSR) of 93%, a remaining binding at 2 µM [5] of 70% and a remaining binding at 2 µM (PIP5K1C) of 87%. The remaining binding at 2 µM (CAMKK1) was 100%, the remaining binding at 2 µM (ERK8 (MAPK15)) was 76% and the remaining binding at 2 µM (EGFR(L858R, T790M)) was 82%. The remaining binding at 2 µM (STK16) was 71%, the remaining binding at 2 µM (ABL2) was 93% and the remaining binding at 2 µM (MEK2 (MAP2K2)) was 64%. For the same compound, the remaining binding at 2 µM (MEK5 (MAP2K5)) was 63%, the remaining binding at 2 µM [6] was 74% and the remaining binding at 2 µM (RET(M918T)) was 85%. It also gave a remaining binding at 2 µM (MINK (MINK1)) of 56%, a remaining binding at 2 µM (PIK3CA(H1047L)) of 84% and a remaining binding at 2 µM (CDK11 (CDK19)) of 13%. The remaining binding at 2 µM (CDK5) was 100%, the remaining binding at 2 µM (EPHA8) was 91% and the “Percent Control” value (FLT3(ITD)) was 97%. The remaining binding at 2 µM (DAPK1) was 100%, the remaining binding at 2 µM (MARK2) was 100% and the remaining binding at 2 µM (OSR1 (OXSR1)) was 51%.
